Data as given in patent US20190169140A1, “IDO1 INHIBITOR AND PREPARATION METHOD AND APPLICATION THEREOF” (SHANDONG LUYE PHARMACEUTICAL CO., LTD., priority 2016, published 2019).

Assays:
[1] = target: T1, CYP3A4 (Homo sapiens, UniProt P08684); experiment: Inhibition on human liver microsome CYP3A4; type: in vitro ADME; details: human liver microsomes; for IC50: 5-in-1 probe substrate
T1 construct: tissue Corning Inc. or XenoTech, LLC. or other suppliers; host or cells: mixed human liver microsomes
T1 sequence (P08684 whole entry): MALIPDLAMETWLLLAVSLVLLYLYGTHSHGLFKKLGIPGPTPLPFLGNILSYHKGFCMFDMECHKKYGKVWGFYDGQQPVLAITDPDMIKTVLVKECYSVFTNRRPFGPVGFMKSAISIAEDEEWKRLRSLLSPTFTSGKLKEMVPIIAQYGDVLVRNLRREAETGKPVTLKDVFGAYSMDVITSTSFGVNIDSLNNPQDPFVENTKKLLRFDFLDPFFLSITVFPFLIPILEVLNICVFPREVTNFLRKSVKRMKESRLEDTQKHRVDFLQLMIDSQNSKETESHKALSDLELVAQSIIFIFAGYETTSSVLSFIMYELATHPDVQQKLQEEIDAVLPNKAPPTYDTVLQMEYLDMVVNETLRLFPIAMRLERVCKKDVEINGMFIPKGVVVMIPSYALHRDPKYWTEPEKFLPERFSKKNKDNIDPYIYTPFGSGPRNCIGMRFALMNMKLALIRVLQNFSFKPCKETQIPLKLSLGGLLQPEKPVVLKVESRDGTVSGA
Protocol: (§1) The research project aimed at evaluating inhibitory ability of a sample for test on human liver microsome cytochrome P450 isozymes (CYP1A2, CYP2C9, CYP2C19, CYP2D6, and CYP3A4) with use of a 5-in-1 probe substrate for CYP isozymes.
(§2) Mixed human liver microsomes (HLM) were purchased from Corning Inc. (Steuben, N.Y., USA) or XenoTech, LLC. (Lenexa, Kans., USA) or other suppliers, and stored in a condition below −70° C. before use.
(§3) Diluted working solutions of the sample for test in serial concentrations were added to an incubation system containing the human liver microsomes, probe substrate, and accessory factors of a cycling system, and a control containing no sample for test but a solvent was taken as a control for enzymatic activity (100%). Concentration of metabolites generated by the probe substrate in the sample was measured with a method of liquid chromatography-tandem mass spectrometry (LC-MS/MS). Nonlinear regression analysis of mean percentage activity vs concentration of the sample for test was carried out using SigmaPlot (V.11). An IC^50 value was calculated through a three-parameter or four-parameter inflection logarithmic equation.

[2] = target: T2, CYP2D6 (Homo sapiens, UniProt P10635); experiment: Inhibition on human liver microsome CYP2D6; type: in vitro ADME; details: human liver microsomes; for IC50: 5-in-1 probe substrate
T2 construct: tissue Corning Inc. or XenoTech, LLC. or other suppliers; host or cells: mixed human liver microsomes
T2 sequence (P10635 whole entry): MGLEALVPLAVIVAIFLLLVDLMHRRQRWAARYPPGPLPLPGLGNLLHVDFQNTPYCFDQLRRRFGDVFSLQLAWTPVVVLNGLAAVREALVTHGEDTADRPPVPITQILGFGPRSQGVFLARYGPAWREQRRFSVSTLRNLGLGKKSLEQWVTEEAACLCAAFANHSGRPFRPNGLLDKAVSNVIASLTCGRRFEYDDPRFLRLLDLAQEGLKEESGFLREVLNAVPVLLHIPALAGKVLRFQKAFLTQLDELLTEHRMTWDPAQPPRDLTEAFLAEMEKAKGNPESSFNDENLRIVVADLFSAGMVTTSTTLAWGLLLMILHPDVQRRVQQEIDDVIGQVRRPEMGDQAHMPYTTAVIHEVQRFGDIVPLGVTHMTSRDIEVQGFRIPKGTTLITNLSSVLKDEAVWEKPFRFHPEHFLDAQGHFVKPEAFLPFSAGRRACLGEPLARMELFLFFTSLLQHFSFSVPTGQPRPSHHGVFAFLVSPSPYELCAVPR
Protocol: as §1, §2, §3

[3] = Liver microsome stability, mouse; type: in vitro ADME, CD-1 mice; details: mouse liver microsomes; for CLint scaled: CD-1, read-out: Intrinsic clearance; for Remaining % (60 min): 37° C.
Protocol: (§4) The purpose of research in the present experiment is assessing phase I metabolic stability of the sample for test in CD-1 mice, SD rats, and human liver microsomes.
(§5) The animals and human liver microsomes used in this test system were purchased from BD Gentest, Xenotech, Corning or BioreclamationIVT, and stored in a refrigerator at −80° C. before use.
(§6) The sample for test and control were incubated together with the microsomes under a condition of 37° C. for 60 minutes, and a cold acetonitrile solution (or other organic solvents) containing an internal standard substance was added at a designated time point to terminate the reaction. After centrifugation, a resultant supernatant was assayed in a semiquantitative manner through liquid chromatography tandem mass spectrometry (LC/MS/MS). Software Analyst (AB Sciex, Framingham, Mass., USA) was used for processing retention time of analyte and internal standard, and achieving chromatogram collection, and chromatogram integration
(§7) An in vitro elimination rate constant ke of the sample was obtained by converting a ratio of the sample to a peak area of the internal standard to remaining percentage, to calculate an in vitro elimination rate and half-life of the sample for test.

[4] = target: T3, CYP2C19 (Homo sapiens, UniProt P33261); experiment: Inhibition on human liver microsome CYP2C19; type: in vitro ADME; details: human liver microsomes; for IC50: 5-in-1 probe substrate
T3 construct: tissue Corning Inc. or XenoTech, LLC. or other suppliers; host or cells: mixed human liver microsomes
T3 sequence (P33261 whole entry): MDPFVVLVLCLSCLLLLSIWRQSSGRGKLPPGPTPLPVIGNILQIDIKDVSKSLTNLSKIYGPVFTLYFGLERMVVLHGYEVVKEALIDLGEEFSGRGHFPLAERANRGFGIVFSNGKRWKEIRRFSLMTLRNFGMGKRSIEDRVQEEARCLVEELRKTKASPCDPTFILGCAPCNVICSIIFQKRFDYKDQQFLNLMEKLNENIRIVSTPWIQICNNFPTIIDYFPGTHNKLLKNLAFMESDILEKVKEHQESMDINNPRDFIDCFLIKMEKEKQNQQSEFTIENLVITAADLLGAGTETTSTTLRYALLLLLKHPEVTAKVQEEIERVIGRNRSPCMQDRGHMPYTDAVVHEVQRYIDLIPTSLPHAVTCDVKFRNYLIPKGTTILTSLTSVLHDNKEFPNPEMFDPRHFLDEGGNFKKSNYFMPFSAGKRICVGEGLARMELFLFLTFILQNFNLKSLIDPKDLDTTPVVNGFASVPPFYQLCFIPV
Protocol: as §1, §2, §3

[5] = Liver microsome stability, human; type: in vitro ADME; details: human liver microsomes; for Remaining % (60 min): 37° C.; for CLint scaled: read-out: Intrinsic clearance
Protocol: as §4, §5, §6, §7

[6] = system: mice colon cancer CT26; details: according to document reports; cited from earlier work

Row | Structure (SMILES) | IC50 [1] | IC50 [2] | CLint scaled [3] | metabolic stability in words [3] | Remaining % (60 min) [3] | inhibiting effect on CYP2C19 in words [4] | IC50 [4] | metabolic stability in words [5] | Remaining % (60 min) [5] | CLint scaled [5] | inhibiting effect on CYP3A4 in words [1] | inhibiting effect on CYP2D6 in words [2] | growth of tumors in mice colon cancer CT26 model [6]
1 | CC(=O)NCCSc1nonc1/C(=N/O)Nc1ccc(F)c(Br)c1 [Compound 0227] | 39.2 µM | 26.1 µM | 275 mL/min/kg | metabolized quickly | 11.0% | intermediate degree | 3.61 µM | metabolized in a moderate manner | 56.9% | 15.3 mL/min/kg |  |  | 
2 | NC(=O)NCCSc1nonc1/C(=N/O)Nc1ccc(F)c(Br)c1 [Compound 0231] | > 50 µM | > 50 µM | 134 mL/min/kg | metabolized quickly | 35.8% | relatively weak effect | 36.4 µM | metabolized in a relatively steady manner | 81.6% | < 8.6 mL/min/kg | relatively weak effect | relatively weak effect | 
3 | NS(=O)(=O)NCCNc1nonc1C(=NO)Nc1ccc(F)c(Br)c1 [Compound 360, INCB024360, reference compound] |  |  |  |  |  |  |  |  |  |  |  |  | effectively inhibit growth of tumors
